Data taken from US7414049B2, “4-oxo-2,3,4,5-tetrahydro-benzo[b][1,4]diazepine derivatives” (Hoffmann-La Roche Inc., priority 2006, dated 2008).
≈ marks a conversion by molar mass, not a printed value.

What was measured:
[1] = Microsome incubation, metabolic stability (mouse); type: in vitro ADME; conditions: for microsomal CLint at 10 μM: pH 7.4, liver microsomes, test compound 10 μM, 37° C., read-out: Intrinsic clearance (mouse)
[2] = Microsome incubation, metabolic stability (human); type: in vitro ADME; conditions: for microsomal CLint at 10 μM: pH 7.4, human liver microsomes 2.0 mg prot/mL, test compound 10 μM, 37° C., read-out: Intrinsic clearance (human)
Protocol: The compounds of formula I of the present invention are further characterized by high metabolic stability. This parameter is a prerequisite for good bioavailability, which is necessary to obtain medicaments with acceptable in-vivo activity. The metabolic stability has been tested by the following method:
Incubation mixtures consisted of liver microsomes (rat 1.0 mg prot/mL or human 2.0 mg prot/mL), test compound 10 μM, MgCl2 (3.3 mM), and an NADPH regenerating system consisting of glucose-6-phosphate dehydrogenase, NADPH and glucose-6-phosphate (equivalent to 1 mM NADPH) in a total volume of 1.0 mL of potassium phosphate buffer 100 mM pH 7.4. Reactions were initiated by addition of the NADPH regenerating system at 37° C. At the time of 1, 5, 9, 13, 17, 21, 25, and 29 min a 5 μL aliquot was directly analysed on a HPLC-MS/MS system consisting of a HP 1100 quaternary pump with degasser and a PE-Sciex API-2000 MS/MS spectrometer. The analytical column was a Waters Symmetry Shield RP8 (2.1*50 mm with a […] particle size). A polarity non linear gradient from phase A (MeOH/Ac. Form. 1% 20/80) to phase B (MeOH) was applied for a total run time of 2 minutes at a flow rate of 0.25 mL/min. The PE-Sciex API-2000 MS/MS spectrometer was used for detection of the parent compound. In vivo metabolic clearance was predicted according to published procedures [Houston, Biochem. Pharmacol. 47:1469-1479 (1994)]. In brief, the intrinsic clearance (Clearance, see table below) is calculated from the measured in vitro half-life taking into account incubation volume and microsomal protein used for the in vitro incubation. The intrinsic clearance is expressed in terms of μl/min/mg microsomal protein. For in vivo extrapolations, the hepatic extraction ratio (E) was calculated. Here it is reported the % MAB value which is equal to 1-E. The MAB (maximal achievable bioavailability) values express the maximal bioavailability that one can achieve with the given clearance values.

[3] = THESA assay, thermodynamic solubility; type: physicochemical; conditions: 22.5 °C, aqueous buffer, thermodynamic from solid, 50 mM phosphate buffer
Protocol: In addition, the compounds of the present invention have been tested in a THESA assay for determination of the thermodynamic solubility.
Approximately 2 mg of each compound was added in excess to a 50 mM phosphate buffer, at room temperature (22.5±1° C.). Each sample was placed in a microanalysis tube, which was sonicated for 1 h and agitated for 2 h. All suspensions were left overnight. At the next day all pHs were measured with a pH-meter and the samples filtered with a micronic filterplate (MSGVN2250) to separate the solid material from the solution. Then, all solutions were analyzed by HPLC. The calibration line was established by different concentrations of the compound in DMSO. From this regression equation the solubility of the compound was determined.

[4] = maximal achievable bioavailability = 1-E, extrapolated from intrinsic clearance

Row | SMILES | MAB (mouse) [1, 4] | microsomal CLint at 10 μM [1] | MAB (human) [2, 4] | microsomal CLint at 10 μM [2] | solubility thermodynamic ([3]; room temperature (22.5±1° C.)) | MAB (mouse) ([1]; comparison table) | MAB (human) ([2]; comparison table) | solubility thermodynamic ([3]; comparison table, room temperature)
1 | CC(O)(C(=O)NCC(F)(F)C(F)(F)F)C(=O)N[C@H]1CN(C(=O)OCC(F)(F)F)c2ccccc2N(CCO)C1=O (single isomer, unassigned) [Example 12, (S)-5-(2-Hydroxy-ethyl)-3-[(S or R)-2-hydroxy-2-(2,2,3,3,3-pentafluoro-propylcarbamoyl) -propionylamino]-4-oxo-2,3,4,5-tetrahydro-benzo[b][1,4]diazepine-1-carboxylic acid 2,2,2-trifluoro-ethyl ester] | 97.2% | 0.9 µL/min/mg | 84.3% | 2.9 µL/min/mg | 3230 µg/mL (≈ 5430 µM) | – | – | –
2 | CC(O)(C(=O)NCC(F)(F)C(F)(F)F)C(=O)N[C@H]1CN(CCO)c2ccccc2N(CC(F)(F)F)C1=O (single isomer, unassigned) [Example 8, (R or S)-2-Hydroxy-N-[(S)-5-(2-hydroxy-ethyl)-2-oxo-1-(2,2,2-trifluoro-ethyl)-2,3,4,5-tetrahydro-1H-benzo[b][1,4]diazepin-3-yl]-2-methyl-N′-(2,2,3,3,3-pentafluoro-propyl)-malonamide] | 37.5% | 52.7 µL/min/mg | 100.0% | – | 2670 µg/mL (≈ 4850 µM) | – | – | –
3 | CC(O)(C(=O)NCC(F)(F)C(F)(F)F)C(=O)N[C@H]1CN(CCO)c2ccccc2NC1=O (mixture of isomers) [Example 7, (RS)-2-Hydroxy-N-[(S)-1-(2-hydroxy-ethyl)-4-oxo-2,3,4,5-tetrahydro-1H-benzo[b][1,4]diazepin-3-yl]-2-methyl-N′-(2,2,3,3,3-pentafluoro-propyl)-malonamide] | 49.3% | 32.5 µL/min/mg | 74.9% | 5.2 µL/min/mg | – | – | – | –
4 | CC(O)(C(=O)NCC(F)(F)C(F)(F)F)C(=O)N[C@H]1CN(CC(F)(F)F)c2ccccc2N(CCO)C1=O (single isomer, unassigned) [Example 9, (R or S)-2-Hydroxy-N-[(S)-1-(2-hydroxy-ethyl)-2-oxo-5-(2,2,2-trifluoro-ethyl)-2,3,4,5-tetrahydro-1H-benzo[b][1,4]diazepin-3-yl]-2-methyl-N′-(2,2,3,3,3-pentafluoro-propyl)-malonamide] | 32.7% | 65.2 µL/min/mg | 88.2% | 2.1 µL/min/mg | 1780 µg/mL (≈ 3240 µM) | – | – | –
5 | CC(C)(C(=O)NCC(F)(F)C(F)(F)F)C(=O)N[C@H]1CN(C(=O)OCC(F)(F)F)c2ccccc2N(CC(F)(F)F)C1=O [reference compound] | – | – | – | – | – | 28.4% | 19.6% | 16 µg/mL (≈ 25.4 µM)
6 | CC(O)(C(=O)NCC(F)(F)C(F)(F)F)C(=O)N[C@H]1CN(C(=O)OCCCC(F)(F)F)c2ccccc2N(CCCC(F)(F)F)C1=O (single isomer, unassigned) [Example 13] | 100% | – | 87.4% | 2.2 µL/min/mg | – | – | – | –
7 | CC(C(=O)NCC(F)(F)C(F)(F)F)C(=O)N[C@H]1CN(C(=O)OCC2CC2)c2ccccc2N(CC(F)(F)F)C1=O (some centres unmarked) [reference compound] | – | – | – | – | – | 47.6% | 26.8% | –
8 | CC(O)(C(=O)NCC(F)(F)C(F)(F)F)C(=O)N[C@H]1CN(C(=O)OCC(F)(F)F)c2cc(F)c(F)cc2N(CC(F)(F)F)C1=O (single isomer, unassigned) [Example 2] | 83.0% | 6.5 µL/min/mg | 54.3% | 13.1 µL/min/mg | – | – | – | –

More lines, now with the values ahead:

Row | MAB (mouse) [1, 4] | microsomal CLint at 10 μM [1] | MAB (human) [2, 4] | microsomal CLint at 10 μM [2] | solubility thermodynamic ([3]; room temperature (22.5±1° C.)) | MAB (mouse) ([1]; comparison table) | MAB (human) ([2]; comparison table) | solubility thermodynamic ([3]; comparison table, room temperature) | SMILES
9 | 10.8% | 262 µL/min/mg | 45.5% | 18.6 µL/min/mg | 67 µg/mL (≈ 129 µM) | – | – | – | CC(O)(C(=O)NCC(F)(F)C(F)(F)F)C(=O)N[C@H]1CN(CCC(F)(F)F)c2ccccc2NC1=O (single isomer, unassigned) [Example 5, (R or S)-2-Hydroxy-2-methyl-N-[(S)-4-oxo-1-(3,3,3-trifluoro-propyl)-2,3,4,5-tetrahydro-1H-benzo[b][1,4]diazepin-3-yl]-N′-(2,2,3,3,3-pentafluoro-propyl)-malonamide and (S or R)-2-Hydroxy-2-methyl-N-[(S)-4-oxo-1-(3,3,3-trifluoro-propyl)-2,3,4,5-tetrahydro-1H-benzo[b][1,4]diazepin-3-yl]-N′-(2,2,3,3,3-pentafluoro-propyl)-malonamide]
10 | 20.1% | 126 µL/min/mg | 56.7% | 11.9 µL/min/mg | – | – | – | – | CC(O)(C(=O)NCC(F)(F)C(F)(F)F)C(=O)N[C@H]1CN(CC(F)(F)F)c2ccc(F)cc2NC1=O (single isomer, unassigned) [Example 3, N-[(S)-7-Fluoro-4-oxo-1-(2,2,2-trifluoro-ethyl)-2,3,4,5-tetrahydro-1H-benzo[b][1,4]diazepin-3-yl]-(R or S)-2-hydroxy-2-methyl-N′-(2,2,3,3,3-pentafluoro-propyl)-malonamide and N-[(S)-7-Fluoro-4-oxo-1-(2,2,2-trifluoro-ethyl)-2,3,4,5-tetrahydro-1H-benzo[b][1,4]diazepin-3-yl]-(S or R)-2-hydroxy-2-methyl-N′-(2,2,3,3,3-pentafluoro-propyl)-malonamide]
11 | 58.5% | 22.4 µL/min/mg | 99.7% | 0.05 µL/min/mg | 77 µg/mL (≈ 131 µM) | – | – | – | CC(O)(C(=O)NCC(F)(F)C(F)(F)F)C(=O)N[C@H]1CN(C(=O)OCC(F)(F)F)c2cc(F)c(F)cc2NC1=O (single isomer, unassigned) [Example 1, (S)-7,8-Difluoro-3-[(R or S)-2-hydroxy-2-(2,2,3,3,3-pentafluoro-propylcarbamoyl)-propionylamino]-4-oxo-2,3,4,5-tetrahydro-benzo[b][1,4]diazepine-1-carboxylic acid 2,2,2-trifluoro-ethyl ester and (S)-7,8-Difluoro-3-[(S or R)-2-hydroxy-2-(2,2,3,3,3-pentafluoro-propylcarbamoyl)-propionylamino]-4-oxo-2,3,4,5-tetrahydro-benzo[b][1,4]diazepine-1-carboxylic acid 2,2,2-trifluoro-ethyl ester]
12 | 19.6% | 130 µL/min/mg | 55.5% | 12.5 µL/min/mg | – | 19.6% | 55.5% | – | CC(O)(C(=O)NCC(F)(F)C(F)(F)F)C(=O)N[C@H]1CN(CC(F)(F)F)c2ccccc2NC1=O (single isomer, unassigned) [Example 4, (R or S)-2-Hydroxy-2-methyl-N-[(S)-4-oxo-1-(2,2,2-trifluoro-ethyl)-2,3,4,5-tetrahydro-1H-benzo[b][1,4]diazepin-3-yl]-N′-(2,2,3,3,3-pentafluoro-propyl)-malonamide and (S or R)-2-Hydroxy-2-methyl-N-[(S)-4-oxo-1-(2,2,2-trifluoro-ethyl)-2,3,4,5-tetrahydro-1H-benzo[b][1,4]diazepin-3-yl]-N′-(2,2,3,3,3-pentafluoro-propyl)-malonamide]
